Each block holds one molecule with its values, some of them ahead of it.
Tested on: PIP tumor and PC3 tumor
Experiment: Biodistribution of 125I labeled compounds 17, 18, 26 and 27 in tumor bearing nude mice
Assay type: in vivo
Conditions: for Biodistribution: Bladder* / Biodistribution: Stomach* / Biodistribution: large intestine* / Biodistribution: small intestine*: organ with content; for PIP/blood / PIP/muscle: ratio; for Liver uptakes / Uptakes in PIP tumors, kidneys and spleen compared to [125I]17 and [125I]18 / Washout in PIP tumors, kidneys and spleen compared to [125I]18 and [125I]27: mouse, in vivo
Method: Radioiodination and Purification: 100 μg of either precursor 13, 14, 22 or 23 were dissolved in 100 μL EtOH; 22 μL Na^125I (1033-1118 μCi in 0.1 N NaOH), 100 μL 1N HCl and 100 μL 3% H2O2 were added. After 15 minutes at room temperature, the reaction was stopped by adding 150 μL sat. NaHSO3. The reaction mixture was slowly added to 1.5 mL sat. NaHCO3. Vial was rinsed with 1000 μL EtOH and mixture was diluted further to 10 mL mL water. The active sample was transferred onto an activated C4 mini column. The mixture was pushed through, washed twice with 3 mL water and the product was eluted with 1 mL ACN. Added 100 μL DMSO. The mixture was concentrated to ˜100 μL and purified by HPLC (Agilent Eclipse XCD C18 150×4.6 mm, 5 μm; 4 mL/min, gradient (ACN and water; 0-1 min (20/80), 1-16 min (20/80-100/0), 16-16.5 min (100/0-20/80), 16.5-20 min 20/80) (collected every minute). The sample was blown to dryness under argon, re-dissolved in 500 μL CH2Cl2 and 1 mL TFA was added at room temperature. After 1 hr the solution was blown to dryness and activity taken into 1 mL EtOH (10 μL saturated ascorbic acid/EtOH was added). Isolated activities for [^125I]17, 18, 26, and 27 were 197, 189, 600 and 197 μCi respectively. A representative picture of HPLC profiles (FIG. 3) for radiolabeled protected (intermediate), cold standard and radioactive trace of final compound is shown for [^125I]26.
For iv injection 150 μL of labeled solution was diluted with saline to 3.75 mL. Mice were injected with 2˜3 μCi of [^125I]18, 27, 26, and 18 in 0.15 mL saline. Injected radioactivity was 2 to 3 μCi.
Biodistribution study of [^125I]18, 27, 26, and 18 in tumor bearing nude mice were evaluated for their ability to localization of PSMA positive tumor (Tables 5, 6, 7 and 8). It was observed that [^125I]26 and [^125I] […] These new agents are valuable for radionuclide therapy, when labeled with beta or alpha-emitting isotopes; but these agents will also be useful as diagnostic agents when labeled with gamma-emitting isotopes.

- Biodistribution: Blood (1 h): 0.46 ± 0.22 % ID/g
- Biodistribution: Bone (1 h): 0.48 ± 0.11 % ID/g
- Biodistribution: Heart (1 h): 0.73 ± 0.20 % ID/g
- Biodistribution: Kidney (1 h): 174.61 ± 30.65 % ID/g
- Biodistribution: Liver (1 h): 4.61 ± 1.72 % ID/g
- Biodistribution: Lung (1 h): 3.08 ± 0.87 % ID/g
- Biodistribution: Muscle (1 h): 1.72 ± 0.54 % ID/g
- Biodistribution: PC3 tumor (1 h): 2.39 ± 1.42 % ID/g
- Biodistribution: PIP tumor (1 h): 26.19 ± 3.46 % ID/g
- Biodistribution: Pancreas (1 h): 0.98 ± 0.42 % ID/g
- Biodistribution: Skin (1 h): 2.33 ± 0.61 % ID/g
- Biodistribution: Spleen (1 h): 21.66 ± 2.63 % ID/g
- Biodistribution: gland (1 h): 6.97 ± 1.06 % ID/g
- Biodistribution: thyroid (1 h): 13.21 ± 8.48 % ID/g
- Biodistribution: Bladder* (1 h): 14.69 ± 3.80 % ID/g
- Biodistribution: Stomach* (1 h): 0.35 ± 0.11 % ID/g
- Biodistribution: large intestine* (1 h): 1.24 ± 0.79 % ID/g
- Biodistribution: small intestine* (1 h): 1.08 ± 0.63 % ID/g
- PIP/blood (1 h): 66.04 ± 29.31
- PIP/muscle (1 h): 16.02 ± 3.85
- Biodistribution: Blood (4 h): 0.21 ± 0.21 % ID/g
- Biodistribution: Bone (4 h): 0.25 ± 0.06 % ID/g
- Biodistribution: Heart (4 h): 0.38 ± 0.23 % ID/g
- Biodistribution: Kidney (4 h): 114.69 ± 32.67 % ID/g
- Biodistribution: Liver (4 h): 4.90 ± 1.80 % ID/g
- Biodistribution: Lung (4 h): 2.08 ± 0.67 % ID/g
- Biodistribution: Muscle (4 h): 0.30 ± 0.19 % ID/g
- Biodistribution: PC3 tumor (4 h): 1.37 ± 0.45 % ID/g
- Biodistribution: PIP tumor (4 h): 14.32 ± 3.87 % ID/g
- Biodistribution: Pancreas (4 h): 0.52 ± 0.26 % ID/g
- Biodistribution: Skin (4 h): 1.67 ± 1.30 % ID/g
- Biodistribution: Spleen (4 h): 15.37 ± 3.26 % ID/g
- Biodistribution: gland (4 h): 2.03 ± 1.29 % ID/g
- Biodistribution: thyroid (4 h): 28.57 ± 10.04 % ID/g
- Biodistribution: Bladder* (4 h): 15.11 ± 4.09 % ID/g
- Biodistribution: Stomach* (4 h): 0.49 ± 0.27 % ID/g
- Biodistribution: large intestine* (4 h): 1.35 ± 0.47 % ID/g
- Biodistribution: small intestine* (4 h): 0.30 ± 0.11 % ID/g
- PIP/blood (4 h): 104.80 ± 62.05
- PIP/muscle (4 h): 60.91 ± 38.35
- Liver uptakes: low
- Uptakes in PIP tumors, kidneys and spleen compared to [125I]17 and [125I]18: higher uptakes
- Washout in PIP tumors, kidneys and spleen compared to [125I]18 and [125I]27: significantly faster washout
Compound: O=C(O)CC[C@H](NC(=O)N[C@@H](CCCCNC(=O)[C@H](Cc1ccccc1)NC(=O)COc1ccc(C[C@H](NC(=O)[C@H](CCC(=O)O)NC(=O)c2ccc([125I])cc2)C(=O)O)cc1)C(=O)O)C(=O)O [[^125I]26]

- Biodistribution: Blood (1 h): 0.45 ± 0.11 % ID/g
- Biodistribution: Bone (1 h): 0.16 ± 0.02 % ID/g
- Biodistribution: Heart (1 h): 0.29 ± 0.04 % ID/g
- Biodistribution: Kidney (1 h): 41.44 ± 5.10 % ID/g
- Biodistribution: Liver (1 h): 2.94 ± 2.12 % ID/g
- Biodistribution: Lung (1 h): 1.15 ± 1.27 % ID/g
- Biodistribution: Muscle (1 h): 0.43 ± 0.24 % ID/g
- Biodistribution: PC3 tumor (1 h): 1.70 ± 1.33 % ID/g
- Biodistribution: PIP tumor (1 h): 10.72 ± 2.98 % ID/g
- Biodistribution: Pancreas (1 h): 0.55 ± 0.64 % ID/g
- Biodistribution: Skin (1 h): 0.57 ± 0.24 % ID/g
- Biodistribution: Spleen (1 h): 3.25 ± 1.52 % ID/g
- Biodistribution: gland (1 h): 0.81 ± 0.18 % ID/g
- Biodistribution: thyroid (1 h): 3.57 ± 0.75 % ID/g
- Biodistribution: Bladder* (1 h): 204.72 ± 108.11 % ID/g
- Biodistribution: Stomach* (1 h): 0.18 ± 0.05 % ID/g
- Biodistribution: large intestine* (1 h): 2.10 ± 1.64 % ID/g
- Biodistribution: small intestine* (1 h): 3.22 ± 1.64 % ID/g
- PIP/blood (1 h): 23.69 ± 2.07
- PIP/muscle (1 h): 27.52 ± 7.80
- Biodistribution: Blood (4 h): 0.09 ± 0.03 % ID/g
- Biodistribution: Bone (4 h): 0.03 ± 0.02 % ID/g
- Biodistribution: Heart (4 h): 0.11 ± 0.07 % ID/g
- Biodistribution: Kidney (4 h): 25.41 ± 7.57 % ID/g
- Biodistribution: Liver (4 h): 0.48 ± 0.53 % ID/g
- Biodistribution: Lung (4 h): 0.19 ± 0.13 % ID/g
- Biodistribution: Muscle (4 h): 0.25 ± 0.44 % ID/g
- Biodistribution: PC3 tumor (4 h): 0.28 ± 0.10 % ID/g
- Biodistribution: PIP tumor (4 h): 5.17 ± 2.02 % ID/g
- Biodistribution: Pancreas (4 h): 0.22 ± 0.25 % ID/g
- Biodistribution: Skin (4 h): 0.11 ± 0.04 % ID/g
- Biodistribution: Spleen (4 h): 0.46 ± 0.27 % ID/g
- Biodistribution: gland (4 h): 0.19 ± 0.05 % ID/g
- Biodistribution: thyroid (4 h): 7.16 ± 1.91 % ID/g
- Biodistribution: Bladder* (4 h): 68.75 ± 30.09 % ID/g
- Biodistribution: Stomach* (4 h): 0.11 ± 0.10 % ID/g
- Biodistribution: large intestine* (4 h): 0.86 ± 0.22 % ID/g
- Biodistribution: small intestine* (4 h): 0.23 ± 0.16 % ID/g
- PIP/blood (4 h): 62.95 ± 31.81
- PIP/muscle (4 h): 200.29 ± 221.74
- Washout in PIP tumors, kidneys and spleen compared to [125I]18 and [125I]27: significantly faster washout
Compound: O=C(O)CC[C@H](NC(=O)N[C@@H](CCCCNC(=O)[C@H](Cc1ccccc1)NC(=O)[C@H](CCC(=O)O)NC(=O)c1ccc([125I])cc1)C(=O)O)C(=O)O [[^125I]17]

- Biodistribution: Blood (1 h): 0.47 ± 0.07 % ID/g
- Biodistribution: Bone (1 h): 0.94 ± 0.21 % ID/g
- Biodistribution: Heart (1 h): 2.60 ± 0.10 % ID/g
- Biodistribution: Kidney (1 h): 127.77 ± 8.24 % ID/g
- Biodistribution: Liver (1 h): 1.72 ± 0.11 % ID/g
- Biodistribution: Lung (1 h): 3.53 ± 1.35 % ID/g
- Biodistribution: Muscle (1 h): 1.05 ± 0.07 % ID/g
- Biodistribution: PC3 tumor (1 h): 1.99 ± 0.17 % ID/g
- Biodistribution: PIP tumor (1 h): 17.19 ± 3.74 % ID/g
- Biodistribution: Pancreas (1 h): 1.32 ± 0.46 % ID/g
- Biodistribution: Skin (1 h): 2.68 ± 0.47 % ID/g
- Biodistribution: Spleen (1 h): 12.25 ± 3.36 % ID/g
- Biodistribution: gland (1 h): 3.59 ± 1.03 % ID/g
- Biodistribution: thyroid (1 h): 39.72 ± 12.95 % ID/g
- Biodistribution: Bladder* (1 h): 53.39 ± 19.82 % ID/g
- Biodistribution: Stomach* (1 h): 0.55 ± 0.21 % ID/g
- Biodistribution: large intestine* (1 h): 1.13 ± 0.52 % ID/g
- Biodistribution: small intestine* (1 h): 1.52 ± 0.45 % ID/g
- PIP/blood (1 h): 36.90 ± 8.14
- PIP/muscle (1 h): 16.57 ± 4.28
- Biodistribution: Blood (4 h): 0.32 ± 0.12 % ID/g
- Biodistribution: Bone (4 h): 0.56 ± 0.05 % ID/g
- Biodistribution: Heart (4 h): 1.36 ± 0.33 % ID/g
- Biodistribution: Kidney (4 h): 138.08 ± 31.03 % ID/g
- Biodistribution: Liver (4 h): 1.28 ± 0.63 % ID/g
- Biodistribution: Lung (4 h): 1.86 ± 0.24 % ID/g
- Biodistribution: Muscle (4 h): 0.69 ± 0.21 % ID/g
- Biodistribution: PC3 tumor (4 h): 1.67 ± 0.44 % ID/g
- Biodistribution: PIP tumor (4 h): 17.36 ± 2.57 % ID/g
- Biodistribution: Pancreas (4 h): 1.07 ± 0.31 % ID/g
- Biodistribution: Skin (4 h): 2.03 ± 0.39 % ID/g
- Biodistribution: Spleen (4 h): 13.16 ± 4.01 % ID/g
- Biodistribution: gland (4 h): 3.57 ± 0.54 % ID/g
- Biodistribution: thyroid (4 h): 60.34 ± 22.28 % ID/g
- Biodistribution: Bladder* (4 h): 38.17 ± 21.99 % ID/g
- Biodistribution: Stomach* (4 h): 0.96 ± 0.55 % ID/g
- Biodistribution: large intestine* (4 h): 1.35 ± 0.48 % ID/g
- Biodistribution: small intestine* (4 h): 0.83 ± 0.34 % ID/g
- PIP/blood (4 h): 58.93 ± 20.54
- PIP/muscle (4 h): 27.34 ± 10.28
- Liver uptakes: low
- Uptakes in PIP tumors, kidneys and spleen compared to [125I]17 and [125I]18: higher uptakes
Compound: O=C(O)CC[C@H](NC(=O)N[C@@H](CCCCNC(=O)[C@H](Cc1ccccc1)NC(=O)COc1ccc(C[C@H](NC(=O)[C@H](CCC(=O)O)NC(=O)[C@H](CCC(=O)O)NC(=O)c2ccc([125I])cc2)C(=O)O)cc1)C(=O)O)C(=O)O [[^125I]27]

Reference: patent US20220125959A1, “PROSTATE-SPECIFIC MEMBRANE ANTIGEN (PSMA) INHIBITORS AS DIAGNOSTIC AND RADIONUCLIDE THERAPEUTIC AGENTS” (FIVE ELEVEN PHARMA INC., priority 2019, published 2022)
